Tests used:
[1] = biological target: T1, G12D-mutant human KRAS (amino acid residues 1-188) (Homo sapiens, UniProt P01116, G12D); assay: KRAS Binding Disruption Assay (AlphaScreen; biotinylated KRpep-2d analogue or RAF1-RBD), G12D; conditions: KRAS G12D; geometric mean; read-out: KRAS GMean IC50 (uM) MUTATION: G12D
T1 construct: G12D or G12C-mutant human KRAS (amino acid residues 1-188) with FLAG tag; made in house; host or cells: E. coli
Summary of the method: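 Mutant KRAS (5-20 nM) incubated 1 h at 25° C with test compound and 5-20 nM biotinylated KRpep-2d analogue or RAF1-RBD in 20 mM HEPES pH 7.5, 100 mM NaCl, 5 mM MgCl2, 0.01% Tween-20, 0.01% BSA.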

[2] = biological target: T2, G12V-mutant human KRAS (amino acid residues 1-188) (Homo sapiens, UniProt P01116, G12V); assay: KRAS Binding Competition Assay (AlphaScreen; biotinylated KRpep-2d analogue), G12V; conditions: geometric mean, read-out: KRAS GMean IC50 (uM) MUTATION: G12V
T2 construct: G12V-mutant human KRAS (amino acid residues 1-188) with FLAG tag was purified from E. coli; made in house; host or cells: E. coli
Description: Compound binding disrupts the interaction of KRpep-2d with KRAS, leading to a decrease in Alpha signal.
All assay components were prepared in 20 mM HEPES (pH 7.5), 100 mM NaCl, 5 mM MgCl2, 0.01% Tween-20, and 0.01% BSA. Biotinylated analogues of KRpep-2d were custom synthesized. The binding competition assays were performed using 10 nM of mutant KRAS and 10 nM of biotinylated KRpep-2d analogue. 19 μL of KRAS protein and 4 μL of biotinylated KRpep-2d were added to the wells of a 384-well plate containing 1 μL of various concentrations of test compound or DMSO vehicle. 16 wells containing KRAS, biotinylated KRpep-2d, and 5% DMSO served as high controls. 16 wells containing KRAS only and 5% DMSO served as low controls. Binding reactions were incubated for 1 hour at 25° C., then Anti-Flag Acceptor and Streptavidin Donor Alpha beads were added at a final concentration of 10 μg/mL for an additional hour at room temperature. Alpha signal was read out on a Perkin Elmer Envision HTS instrument. The percentage inhibition at individual compound concentrations relative to high and low controls was calculated. The data were analyzed by using nonlinear regression to generate IC50 values.

Compound: Oc1cc(-c2ccc3c(N4C[C@H]5CC[C@@H](C4)N5)nc(OCC45CCCN4CCC5)nc3c2Cl)c2ccccc2c1 [P-0003, 4-(4-((1R,5S)-3,8-diazabicyclo[3.2.1]octan-3-yl)-8-chloro-2-((tetrahydro-1H-pyrrolizin-7a(5H)-yl)methoxy)quinazolin-7-yl)naphthalen-2-ol]
- IC50 [1]: 0.0001 to 10 µM
- IC50 [2]: 0.0001 to 10 µM

Compound: CN1CCC[C@H]1CNc1nc(N2C[C@H]3CC[C@@H](C2)N3)c2ccc(-c3cc(O)cc4ccccc34)cc2n1 [P-0016, 4-(4-((1R,5S)-3,8-diazabicyclo[3.2.1]octan-3-yl)-2-((((S)-1-methylpyrrolidin-2-yl)methyl)amino)quinazolin-7-yl)naphthalen-2-ol]
- IC50 [1]: 0.0001 to 10 µM
- IC50 [2]: 10 to 100 µM

Compound: Cc1ccc2[nH]ncc2c1-c1c(Cl)cc2c(N3C[C@H]4CC[C@@H](C3)N4)nc(OC[C@@H]3CCCN3C)nc2c1F [P-0028, 4-((1R,5S)-3,8-diazabicyclo[3.2.1]octan-3-yl)-6-chloro-8-fluoro-7-(5-methyl-1H-indazol-4-yl)-2-(((S)-1-methylpyrrolidin-2-yl)methoxy)quinazoline]
- IC50 [1]: 0.0001 to 10 µM
- IC50 [2]: 100 to 1000 µM

Compound: O=C(NCCN1CCOCC1)N1[C@@H]2CC[C@H]1CN(c1nc(OCC34CCCN3CCC4)nc3cc(-c4cc(O)cc5ccccc45)ccc13)C2 [P-0029, (1R,5S)-3-(7-(3-hydroxynaphthalen-1-yl)-2-((tetrahydro-1H-pyrrolizin-7a(5H)-yl)methoxy)quinazolin-4-yl)-N-(2-morpholinoethyl)-3,8-diazabicyclo[3.2.1]octane-8-carboxamide]
- IC50 [1]: 0.0001 to 10 µM
- IC50 [2]: 0.0001 to 10 µM

Compound: CN1CCC[C@H]1COc1nc(N2CC3CC(C2)N3)c2cc(Cl)c(-c3cc(O)cc4ccccc34)c(F)c2n1 [P-0031, 4-(4-(3,6-diazabicyclo[3.1.1]heptan-3-yl)-6-chloro-8-fluoro-2-(((S)-1-methylpyrrolidin-2-yl)methoxy)quinazolin-7-yl)naphthalen-2-ol]
- IC50 [1]: 0.0001 to 10 µM
- IC50 [2]: 10 to 100 µM

Compound: CN1CCC[C@H]1COc1nc(N2C[C@@H]3C[C@H]2CN3)c2cc(Cl)c(-c3cc(O)cc4ccccc34)c(F)c2n1 [P-0042, 4-(4-((1S,4S)-2,5-diazabicyclo[2.2.1]heptan-2-yl)-6-chloro-8-fluoro-2-(((S)-1-methylpyrrolidin-2-yl)methoxy)quinazolin-7-yl)naphthalen-2-ol]
- IC50 [1]: 0.0001 to 10 µM
- IC50 [2]: 10 to 100 µM

Compound: CN1CCC[C@H]1COc1nc(N2C[C@H]3CC[C@@H](C2)N3)c2cc(Cl)c(-c3cc(O)cc4ccccc34)cc2n1 [P-0043, 4-(4-((1R,5S)-3,8-diazabicyclo[3.2.1]octan-3-yl)-6-chloro-2-(((S)-1-methylpyrrolidin-2-yl)methoxy)quinazolin-7-yl)naphthalen-2-ol]
- IC50 [1]: 0.0001 to 10 µM
- IC50 [2]: 10 to 100 µM

Compound: CN1CCC[C@H]1COc1nc(N2CCC3CCC(C2)N3)c2cc(Cl)c(-c3cc(O)cc4ccccc34)c(F)c2n1 (stereo partly drawn) [P-0046, 4-(4-(3,9-diazabicyclo[4.2.1]nonan-3-yl)-6-chloro-8-fluoro-2-(((S)-1-methylpyrrolidin-2-yl)methoxy)quinazolin-7-yl)naphthalen-2-ol]
- IC50 [1]: 0.0001 to 10 µM
- IC50 [2]: 10 to 100 µM

Compound: Oc1cc(-c2c(Cl)cc3c(N4C[C@H]5CC[C@@H](C4)N5)nc(OCC45CCCN4CC(F)(F)C5)nc3c2F)c2ccccc2c1 (stereo partly drawn) [P-0047, 4-(4-((1R,5S)-3,8-diazabicyclo[3.2.1]octan-3-yl)-6-chloro-2-((2,2-difluorotetrahydro-1H-pyrrolizin-7a(5H)-yl)methoxy)-8-fluoroquinazolin-7-yl)naphthalen-2-ol]
- IC50 [1]: 0.0001 to 10 µM
- IC50 [2]: 0.0001 to 10 µM

Compound: CN1CCC[C@H]1COc1nc(N2CC3CCC2CN3)c2ccc(-c3cc(O)cc4ccccc34)cc2n1 (stereo partly drawn) [P-0050, 4-(4-(2,5-diazabicyclo[2.2.2]octan-2-yl)-2-(((S)-1-methylpyrrolidin-2-yl)methoxy)quinazolin-7-yl)naphthalen-2-ol]
- IC50 [1]: 0.0001 to 10 µM
- IC50 [2]: 10 to 100 µM

Compound: Oc1cc(-c2ccc3c(C4=C[C@@H]5CC[C@H](C4)N5)nc(OCC45CCCN4CCC5)nc3c2)c2ccccc2c1 [P-0054, 4-(4-((1S,5R)-8-azabicyclo[3.2.1]oct-2-en-3-yl)-2-((tetrahydro-1H-pyrrolizin-7a(5H)-yl)methoxy)quinazolin-7-yl)naphthalen-2-ol]
- IC50 [1]: 0.0001 to 10 µM
- IC50 [2]: 10 to 100 µM

Compound: CN1C[C@H](F)C[C@H]1COc1nc(N2C[C@H]3CC[C@@H](C2)N3)c2ccc(-c3cc(O)cc4ccccc34)cc2n1 [P-0072, 4-(4-((1R,5S)-3,8-diazabicyclo[3.2.1]octan-3-yl)-2-(((2S,4R)-4-fluoro-1-methylpyrrolidin-2-yl)methoxy)quinazolin-7-yl)naphthalen-2-ol]
- IC50 [1]: 0.0001 to 10 µM
- IC50 [2]: 0.0001 to 10 µM

Compound: Cc1cccc2cc(O)cc(-c3ccc4c(N5C[C@H]6CC[C@@H](C5)N6)nc(OC[C@@H]5CCCN5C)nc4c3F)c12 [P-0073, 4-(4-((1R,5S)-3,8-diazabicyclo[3.2.1]octan-3-yl)-8-fluoro-2-(((S)-1-methylpyrrolidin-2-yl)methoxy)quinazolin-7-yl)-5-methylnaphthalen-2-ol]
- IC50 [1]: 0.0001 to 10 µM
- IC50 [2]: 0.0001 to 10 µM

Compound: O=C(NC1CCCC1)N1[C@@H]2CC[C@H]1CN(c1nc(OCC34CCCN3CCC4)nc3cc(-c4cc(O)cc5ccccc45)ccc13)C2 [P-0075, (1R,5S)-N-cyclopentyl-3-(7-(3-hydroxynaphthalen-1-yl)-2-((tetrahydro-1H-pyrrolizin-7a(5H)-yl)methoxy)quinazolin-4-yl)-3,8-diazabicyclo[3.2.1]octane-8-carboxamide]
- IC50 [1]: 0.0001 to 10 µM
- IC50 [2]: 0.0001 to 10 µM

Compound: Oc1cc(-c2ccc3c(N4C[C@H]5CC[C@@H](C4)N5)nc(OC[C@@H]4CCCN4CCF)nc3c2)c2ccccc2c1 [P-0077, 4-(4-((1R,5S)-3,8-diazabicyclo[3.2.1]octan-3-yl)-2-(((S)-1-(2-fluoroethyl)pyrrolidin-2-yl)methoxy)quinazolin-7-yl)naphthalen-2-ol]
- IC50 [1]: 0.0001 to 10 µM
- IC50 [2]: 10 to 100 µM

Compound: CN1CCC[C@@H](COc2nc(N3C[C@H]4CC[C@@H](C3)N4)c3ccc(-c4cc(O)cc5ccccc45)cc3n2)C1 [P-0078, 4-(4-((1R,5S)-3,8-diazabicyclo[3.2.1]octan-3-yl)-2-(((R)-1-methylpiperidin-3-yl)methoxy)quinazolin-7-yl)naphthalen-2-ol]
- IC50 [1]: 0.0001 to 10 µM
- IC50 [2]: 10 to 100 µM

Compound: CN1CCCC[C@H]1COc1nc(N2C[C@H]3CC[C@@H](C2)N3)c2ccc(-c3cc(O)cc4ccccc34)cc2n1 [P-0079, 4-(4-((1R,5S)-3,8-diazabicyclo[3.2.1]octan-3-yl)-2-(((S)-1-methylpiperidin-2-yl)methoxy)quinazolin-7-yl)naphthalen-2-ol]
- IC50 [1]: 0.0001 to 10 µM
- IC50 [2]: 10 to 100 µM

Compound: CCN1CCC[C@H]1COc1nc(N2C[C@H]3CC[C@@H](C2)N3)c2ccc(-c3cc(O)cc4ccccc34)cc2n1 [P-0080, 4-(4-((1R,5S)-3,8-diazabicyclo[3.2.1]octan-3-yl)-2-(((S)-1-ethylpyrrolidin-2-yl)methoxy)quinazolin-7-yl)naphthalen-2-ol]
- IC50 [1]: 0.0001 to 10 µM
- IC50 [2]: 10 to 100 µM

Compound: Cc1cccc2cc(O)cc(-c3c(F)cc4c(N5C[C@H]6CC[C@@H](C5)N6)nc(OC[C@@H]5CCCN5C)nc4c3F)c12 [P-0087, 4-(4-((1R,5S)-3,8-diazabicyclo[3.2.1]octan-3-yl)-6,8-difluoro-2-(((S)-1-methylpyrrolidin-2-yl)methoxy)quinazolin-7-yl)-5-methylnaphthalen-2-ol]
- IC50 [1]: 0.0001 to 10 µM
- IC50 [2]: 0.0001 to 10 µM

Compound: CC(=O)OCC(=O)N1[C@@H]2CC[C@H]1CN(c1nc(OCC34CCCN3CCC4)nc3cc(-c4cc(O)cc5ccccc45)ccc13)C2 [P-0089, 2-((1R,5S)-3-(7-(3-hydroxynaphthalen-1-yl)-2-((tetrahydro-1H-pyrrolizin-7a(5H)-yl)methoxy)quinazolin-4-yl)-3,8-diazabicyclo[3.2.1]octan-8-yl)-2-oxoethyl acetate]
- IC50 [1]: 0.0001 to 10 µM
- IC50 [2]: 0.0001 to 10 µM

Compound: CCOC(=O)CNC(=O)N1[C@@H]2CC[C@H]1CN(c1nc(OCC34CCCN3CCC4)nc3cc(-c4cc(O)cc5ccccc45)ccc13)C2 [P-0090, ethyl ((1R,5S)-3-(7-(3-hydroxynaphthalen-1-yl)-2-((tetrahydro-1H-pyrrolizin-7a(5H)-yl)methoxy)quinazolin-4-yl)-3,8-diazabicyclo[3.2.1]octane-8-carbonyl)glycinate]
- IC50 [1]: 0.0001 to 10 µM
- IC50 [2]: 0.0001 to 10 µM

Compound: CC(=O)NCC(=O)N1[C@@H]2CC[C@H]1CN(c1nc(OCC34CCCN3CCC4)nc3cc(-c4cc(O)cc5ccccc45)ccc13)C2 [P-0091, N-(2-((1R,5S)-3-(7-(3-hydroxynaphthalen-1-yl)-2-((tetrahydro-1H-pyrrolizin-7a(5H)-yl)methoxy)quinazolin-4-yl)-3,8-diazabicyclo[3.2.1]octan-8-yl)-2-oxoethyl)acetamide]
- IC50 [1]: 0.0001 to 10 µM
- IC50 [2]: 0.0001 to 10 µM

— US20230081426A1, “COMPOUNDS AND METHODS FOR KRAS MODULATION AND INDICATIONS THEREFOR” (Plexxikon Inc., priority 2020, published 2023)
